Source: patent publication US20120190566A1, “COMPOSITIONS AND METHODS FOR INHIBITING BIOFILMS” (priority 2009, published 2012)

Tests used:
curli = curli (Escherichia coli, UniProt P28307); assay: Inhibition of curli assembly (FIG. 4); assay type: biochemical; settings: in the presence of compound
Excerpt: DAPH-12 (top) blocks tyrosine stacking, while Amphotericin B (bottom) binds to the edge strands and prevents amyloid assembly.

CsgA = CsgA (Escherichia coli, UniProt P28307); settings: peptides immobilized on glass slide; recombinant CsgA ~2 μm, about 10% labeled with ALEXA-647; stringent wash
Chain of CsgA (P28307 21-151): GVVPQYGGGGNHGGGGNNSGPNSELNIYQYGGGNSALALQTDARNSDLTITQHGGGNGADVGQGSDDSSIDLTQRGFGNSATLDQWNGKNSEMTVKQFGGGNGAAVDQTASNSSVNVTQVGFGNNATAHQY
Protocol: Peptide array synthesis, hybridization and quantification. […] Each peptide spot (250 μM in diameter) is printed with 3 drops of 0.5 nL of peptide solution at a concentration of approximately 2.5 μM using non-contact printing (JPT Peptide Technologies GmbH). The unreacted peptides are removed from the hydrogel slides, dried and then the slides are blocked with 3% BSA in PBST for 1 hr. CsgA proteins are denatured in 6 M GuHCl at 100° C. for approximately 20 minutes, diluted 125 times in PBST containing 3% BSA to a final concentration of 1-5 μM and a label ratio of 5-75%. A single peptide array is incubated with approximately 2-3 mL of diluted CsgA using an ATLAS™ hybridization chamber (BD Biociences) without mixing for a given period of time. The peptide arrays are then washed 5 times with 50 mL of 2% SDS for 30 minutes, 5 times with 50 mL of water, 3 times with 50 mL of methanol and then spun dry. […] The arrays are imaged using a GENEPIX® 4000A scanner and the median values for the peptide spots of two to three replicates are quantified using GENEPIX® Pro 6.0 software (Molecular Devices).
Denatured peptides were arrayed on reactive glass slides and their interaction with soluble, fluorescently labeled CsgA was studied.
A peptide library of CsgB sequences was generated and immobilized on a glass slide essentially as described above. […]

Chain of curli (P28307 21-151): as above

Molecule	inhibition of curli assembly (curli)	nucleation of assembly of soluble, fluorescently labeled CsgA by arrayed peptides (CsgA)
COc1ccc(Nc2cc3c(cc2Nc2ccc(OC)cc2)C(=O)NC3=O)cc1 [DAPH-12]	inhibition of curli assembly	
LRQGGSKLLAVVAQEGSSNRAK [SEQ ID NO: 1]		nucleate assembly of CsgA
GTQKTAIVVQRQSQMAIRVT [SEQ ID NO: 2]		nucleate assembly of CsgA
C[C@@H]1[C@H](O)[C@@H](C)/C=C/C=C/C=C/C=C/C=C/C=C/C=C/[C@H](O[C@@H]2O[C@H](C)[C@@H](O)[C@H](N)[C@@H]2O)C[C@@H]2O[C@](O)(C[C@@H](O)C[C@@H](O)[C@H](O)CC[C@@H](O)C[C@@H](O)CC(=O)O[C@H]1C)C[C@H](O)[C@H]2C(=O)O [Amphotericin B]	inhibition of curli assembly	
